Data as given in patent publication US11572590B2, “Methods for evaluating tumor cell spheroids using 3D microfluidic cell culture device” (Dana-Farber Cancer Institute, Inc., priority 2017, dated 2023).

How the values were obtained:
CT26 and EMT6 cells = experiment: Re-implantation of CT26 and EMT6 cells into mice with exceptional responses (immunologic memory); format: in vivo, mouse; details: previous αPD-L1 + Compound 1
Experimental: Combination studies were performed by vivoPharm (Hummelstown, Pa., USA). All procedures used in the performance of these studies were carried out in accordance with vivoPharm's Standard Operating Procedures, with particular reference to US_SOPvP_EF0314 “General Procedures for Efficacy Studies.” CT26 colon carcinoma cells (1×10^6 cells/mouse in 100 μL, passage 2-3) were re-suspended in serum-free DMEM and implanted in the upper right flank of 11-12 week old female Balb/c mice (Charles River Laboratories). Mice were randomized into four groups of 10 using a matched pair distribution method based on tumor size for CT26. Treatment was initiated 12 days post-inoculation with mean tumor volume at start of dosing of 125.85 mm^3. Vehicle or Compound 1 (40 mg/kg) was administered by oral gavage daily for 26 days and isotype control or a reverse chimera anti-PD-L1 cloned from literature reports (e.g., Deng, R. et al. MAbs (2016), the content of which is incorporated herein by reference in entirety) and placed into a mouse IgG1 framework (10 mg/kg) was administered every 5 days for a total of six doses. Investigators were not blinded to treatment groups. […] Mice were sacrificed on Day 13 and lung metastases were quantified (small ≤1 mm, medium >1 mm and ≤3 mm, large >3 mm). No large lung metastases were detected.

[1] = test system: human CD4+ and CD8+ T cells; experiment: IL-2 secretion by anti-CD3/anti-CD28 stimulated T cells; format: cell-based; details: dose-titration, 24 hours
Experimental: Freshly isolated human CD4+ and CD8+ T cells were obtained from AllCells (Alameda, Calif., USA). Cells were spun down and resuspended in serum free Xvivo15 media (Lonza Walkersville, Inc., Chicago, Ill., USA) supplemented with 5 ng/mL […] and incubated overnight at 37° C. Cells were plated on anti-CD3 coated plates (5 μg/mL OKT3, eBioscience, Dallas, Tex., USA, overnight) with 2 μg/mL anti-CD28 (eBioscience, Dallas, Tex., USA). Cells are treated in replicate plates with a dose-titration of Compound 1 for 24 hours for IL-2 and 96 hours for IFNγ. IL-2 and IFNγ in the supernatant were measured using single- or multi-plex immunoassay (Mesoscale Discovery, Rockville, Md., USA). Jurkat T cell leukemia cells (clone E61 obtained from ATCC) plated on anti-CD3 coated plates were treated with a dose titration of Compound 1 for 24 hours. IL-2 in the supernatant was measured as described above.

B16F10 MDOTS = experiment: Bead-based cytokine profiling of B16F10 MDOTS; format: cell-based, murine; details: Cmpd1 (1 μM) ± αPD-1
Experimental: Fresh tumor specimens (murine and human patients) were received in media (DMEM) on ice and minced in a 10 cm dish (on ice) using sterile forceps and scalpel. Minced tumor was resuspended in DMEM ([…], […] sodium pyruvate, 1:100 penicillin-streptomycin) (Corning CellGro, Manassas, Va.) +10% FBS (Gemini Bio-Products, West Sacramento, Calif.), 100 U/mL collagenase type IV (Life Technologies, Carlsbad, Calif.), and 15 mM HEPES (Life Technologies, Carlsbad, Calif.), except for CT26 tumors that were prepared in RPMI. Samples were pelleted and resuspended in 10-20 mL media. Red blood cells were removed from visibly bloody samples using RBC Lysis Buffer (Boston Bio-Products, Ashland, Mass.). […]
Two multiplex assays were performed utilizing a bead-based immunoassay approach, the Bio-Plex Pro™ Human Cytokine 40-plex Assay (Cat #171AK99MR2) and Bio-Plex Pro™ Mouse Cytokine Panel 1, 23-plex (Cat #M60009RDPD) on a Bio-plex 200 system (Cat #171000201). […] Fold changes relative to the MDOT/PDOT control were calculated and plotted as log 2FC. Lower and upper limits of quantitation (LLOQ/ULOQ) were imputed from standard curves for cytokines above or below detection. […]

MB49 allograft = experiment: MB49 allograft, Compound 1 and anti-PD-L1 combination in vivo; set-up: species or system mouse; details: Cmpd1 + αPD-L1

**Q.** What does the source list for `N#Cc1cc(-c2ncnc(Nc3ccc(N4CCN(C5COC5)CC4)cc3)n2)ccc1OC1CCOCC1` [Compound 1, 5-(4-((4-(4-(oxetan-3-yl)piperazin-1-yl)phenyl)amino)-1,3,5-triazin-2-yl)-2-((tetrahydro-2H-pyran-4-yl)oxy)benzonitrile]?
**A.** growth of reimplanted CT26 in mice with exceptional responses to combination therapy (CT26 and EMT6 cells): no growth; secretion of IL-2 from purified CD4+ and CD8+ T cells [1]: enhanced secretion; immune suppressive chemokines (e.g., CCL2, CCL5) in B16F10 MDOTS (B16F10 MDOTS): downregulation; induction of G-CSF and related innate immune response cytokines in B16F10 MDOTS (B16F10 MDOTS): without concomitant induction; response to combination treatment in vivo, MB49 bladder carcinoma model (MB49 allograft): enhanced response
